{
  "source": "patent US20210214399A1",
  "about": "“PH LOW INSERTION PEPTIDE AND COMPOSITION THEREOF” (priority 2017, published 2021)",
  "key": {"[1]": {"conditions": "background art, pHLIP derivatives produced by sequence adjustment; cited from earlier work"}, "4T1 cells tumors": {"test_system": "4T1 cells tumors", "conditions": "fusion peptide 1 mg/kg intravenous every other day combined with CD20 monoclonal antibody GA101 30 mg/kg intraperitoneal twice a week; 4T1 tumors, Balb/c mice", "procedure": "4T1 cells were inoculated into mouse breasts, 2×10^6 cells/mouse, 50 μl volume.\n(§1) When the tumor grows to 50mm^3, treatment was started.\n(§2) The tumor volume and mouse body weight were measured every 3 days.\nWhen the tumor volume in the control group reached 1000 mm^3, the administration was terminated.\nWhen the tumor grows to 50mm^3, treatment was started. There are four groups: CD20-var3/GA101 group (10), GA101 group (5), CD20-var3 group (5), PBS group (10).\nAdministration method: CD20-var3, 1 mg/kg, intravenous injection, every other day; GA101, 30 mg/kg, intraperitoneal injection, twice a week. The tumor volume and mouse body weight were measured every 3 days.\nas §1, §2"}, "[2]": {"test_system": "Mouse colon cancer cells CT26 tumors", "conditions": "for fluorescent marking of tumor tissues by 72 hours: 72 hours after intravenous injection; for marking of tumors (in vivo imaging): CT26 subcutaneous tumors, alexa647 marked peptide intravenously, imaging at 24, 48, 72 hours", "experimental": "Mouse colon cancer cells CT26 were subcutaneously inoculated into Balb/c mice, and when the tumors grew to about 1 cm, saline (N.S.), alexa647 marked p-var7, alexa647 marked var7 were intravenously injected respectively with a dosage of 60 μM/100 pL N. S., in vivo imaging (excitation with Cy5.5 wavelength) was performed at 24, 48, 72 hours with supine position photography. The mice were sacrificed for tumor imaging."}, "[3]": {"test_system": "Human colorectal cancer cell line SW480", "conditions": "for insertion into the surface of the cell (fluorescence on cell membrane): acid solution environment, PBS pH 6.3, alexa647 marked peptide; for insertion into the surface of the cell (fluorescence on cell membrane) / membrane insertion ability: 37° C. 1 hour; for membrane insertion ability: neutral solution environment, PBS pH 7.4, alexa647 marked peptide", "experimental": "(1) The SW480 cells in logarithmic phase were collected, the culture solution was discarded, and the cells were washed twice with saline. […] The cells were transferred to a 10 ml test tube to centrifuge at 1000 rpm for 5 min, the supernatant was removed, and 1 ml of RPMI 1640 medium containing 10% fetal bovine serum was added to resuspend and mix the cells. After 10 μl of the cell suspension was added to a cell counting plate and counted, a certain amount of the cell suspension was added into the laser confocal cell culture dish, which was then adjusted to a cell system of 5* 10^5, 1 ml with complete medium, and put into a cell incubator and incubated overnight.\n(2) The culture solution was prepared using 1 mol/L hydrochloric acid and a PBS buffer at pH 7.4. Hydrochloric acid was added dropwise to the PBS buffer, and finally the pH value of the buffer was titrated to 6.3.\n(3) When the SW480 cells adhered after being cultured overnight, the supernatant of the medium was removed, and the cells were washed twice with a PBS buffer at pH 7.4.\n(4) The PBS buffer in the cell culture dish was removed, 1 ml of the previously prepared mixed culture buffers of PBS at pH 6.3 and 7.4 and peptides were added to the two dishes, respectively, and 1 ml of the PBS medium at pH 7.4 without peptides was added to another control dish, and all of them were put in a 37° C. cell incubator to incubate for 1 hour.\n(5) After incubation, the supernatant of the peptide-containing PBS culture solution was removed, and the peptide-containing PBS culture solution was washed three times with peptide-free PBS buffers with different pH values in each group, and then added with a PBS buffer at pH 7.4.\n(6) The prepared cell culture dishes were placed under the laser confocal microscope (647 mm excitation wavelength) to observe the fluorescence expression on the surface of the cell membrane."}, "A549 tumors": {"test_system": "A549 tumors", "conditions": "Herceptin 10 mg/kg intraperitoneal combined with Her2 D4-pHLIP 40 μM/100 μl intravenous, nude mice", "experimental": "A549 was inoculated into nude mice, when the tumor diameter grew to 1 cm, the tumor was aseptically peeled off, shredded, homogenized, and sieved to make a single cell suspension which was cultured and amplified in 1640 complete medium. The cells were injected into the subcutaneous abdomen of the nude mice with 1×10^6 cells/body, when the tumor diameter grew to 0.5 to 1 cm, the oversized and undersized tumors were removed, and mice with substantially the same tumor size were grouped. There were 4 groups: injection group of the Her2 D4-pHLIP alone, 10; injection group of the Her2 D4-pHLIP combined with the herceptin, 10; injection group of the Her2 D4-pHLIP combined with the IgG1, 10; injection group of normal saline N. S, 10. The tumor size was measured every 3 days.\nAdministration method: Her2 D4-pHLIP administration: each was injected intravenously with 40 μM/100 μl every time, starting from the day after the grouping was completed, once a day, and once every 2 days; antibody administration: Intraperitoneal injection, the dose was 10 mg/kg, the injection frequency was the same as the Her2 D4-pHLIP, and the injection time was 6 to 12 hours after the administration of the Her2 D4-pHLIP until the end."}},
  "data": [
    {"substance": "ACDDQNPWRAYLDLLFPTDTLLLDLLW (listed as Homo sapiens) [var3]", "values": [
      {"measurement": "tumor targeting", "setting": "[1]", "result": "improve its tumor targeting"}
    ]},
    {"substance": "NIYNCEPANP SEKN SP S TQYCYSIQGGGSACEQNPIYWARYADWLF TTPLLLL DLALLVDADEG [CD20-WT]", "values": [
      {"measurement": "tumor cell growth", "setting": "4T1 cells tumors", "result": "can significantly inhibit tumor cell growth"}
    ]},
    {"substance": "ACEEQNPWARYLEWLFPTETLLLEL [var7, reference compound]", "values": [
      {"measurement": "fluorescence intensity as time went by", "setting": "[2]; 24 to 72 hours, var7 compared with p-var7, CT26 tumors, Balb/c mice", "result": "decayed more significantly"},
      {"measurement": "fluorescent marking of tumor tissues by 72 hours", "setting": "[2]; CT26 tumors, Balb/c mice", "result": "only a few markers were visible in the tumor tissues"},
      {"measurement": "marking of tumors (in vivo imaging)", "setting": "[2]; Balb/c mice", "result": "could mark tumors"},
      {"measurement": "tumor targeting", "setting": "[1]", "result": "maintaining good targeting"},
      {"measurement": "insertion into the surface of the cell (fluorescence on cell membrane)", "setting": "[3]", "result": "could effectively insert into the surface of human colon cancer cell SW480"},
      {"measurement": "membrane insertion ability", "setting": "[3]", "result": "retained the ability"}
    ]},
    {"substance": "ACEEQNPGGGSACEEQNPWARYLEWLFPTETLLLEL [p-var7]", "values": [
      {"measurement": "fluorescent marking of tumor tissues by 72 hours", "setting": "[2]; CT26 tumors, Balb/c mice", "result": "still showed strong fluorescent marking"},
      {"measurement": "marking of tumors (in vivo imaging)", "setting": "[2]; Balb/c mice", "result": "could mark tumors"},
      {"measurement": "marking ability, compared", "setting": "[2]; p-var7 compared with var7, CT26 tumors, Balb/c mice", "result": "stronger marking ability"},
      {"measurement": "accumulation of fluorescence in the tumor sites, persistence", "setting": "[2]; previous experiment results of in vivo imaging, same dose 40 μM/100 μl intravenously", "result": "basically degraded by the third day"},
      {"measurement": "insertion into the surface of the cell (fluorescence on cell membrane)", "setting": "[3]", "result": "could effectively insert into the surface of human colon cancer cell SW480"},
      {"measurement": "membrane insertion ability", "setting": "[3]", "result": "lost"},
      {"measurement": "selectivity in the acidic microenvironment", "setting": "[3]; p-var7 compared with var7, pH 6.3 vs 7.4", "result": "more selective in the acidic microenvironment of tumor tissues"}
    ]},
    {"substance": "NIYNCEPANP SEKN SP S TQYC Y SIQ GGG SA S EEQNPWARYLEWLFP TETLLLEL [CD20-var7]", "values": [
      {"measurement": "tumor cell growth", "setting": "4T1 cells tumors", "result": "can significantly inhibit tumor cells growth"}
    ]},
    {"substance": "trastuzumab [Herceptin]", "values": [
      {"measurement": "tumor growth", "setting": "A549 tumors", "result": "significantly inhibited tumor growth"}
    ]},
    {"substance": "NIYNCEPANP SEKN SP S TQYCYSIQGGGSACDDQNPWRAYLDLLFPTDTLLLD LLW [CD20-var3]", "values": [
      {"measurement": "tumor cell growth", "setting": "4T1 cells tumors", "result": "can significantly inhibit tumor cell growth"}
    ]}
  ]
}
